“And” between values parts separate entries of the source, which are not always exact repeats. Identical values can stand only once.
Test system: thromboxane analog U46619 induced PAH in minipigs
Experiment: Haemodynamics (PAP, BP) in the anesthetized thromboxane challenged PAH minipig after inhaled (nebulized) application (C-2.1)
Type: in vivo, Göttingen minipig
Conditions: for BP % change vs. baseline / PAP % change vs. baseline: 100 μg/kg nominal dose, individual animals; for % changes in BP vs baseline: inhaled 10 μg/kg
How it was run: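 Anesthetized, ventilated Göttingen minipigs (2-6 kg) given continuous infusion (0.3-0.75 μg/kg/min) to raise mean PAP above 25 mmHg, dosing starting after a 30 min plateau. Compound in 1% DMSO/0.2% citric acid, pH 8, nebulized via Aeroneb Pro into the inspiratory arm (~7 min; stock 300 μg/kg). PAP by Swan-Ganz catheter, BP via carotid catheter.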

With `O=C(O)c1ccc(CCN(CCc2cc(F)ccc2OCc2ccc(-c3nc4cc(Cl)ccc4o3)cc2)C2CCCc3nc(C(=O)O)ccc32)cc1` (single isomer, unassigned) [comparative example 4, 5-{[2-(4-Carboxyphenyl)ethyl][2-(2-{[4-(5-chloro-1,3-benzoxazol-2-yl)benzyl]oxy}-5-fluorophenyl)-ethyl]amino}-5,6,7,8-tetrahydroquinoline-2-carboxylic acid] as the compound, how does the “BP % change vs. baseline” value (inhaled, time 80 min) read?
Its value is 101.1% and 101.2% and 101.0%.

And the “PAP % change vs. baseline” value (inhaled, time 80 min)?
The value was 102.0% and 96.2% and 97.5%.

And the “BP % change vs. baseline” value (inhaled, time 90 min)?
Its value is 98.7% and 100.3% and 101.0%.

What about the “PAP % change vs. baseline” value (inhaled, time 90 min) of the same compound?
Its value is 100.2% (2×) and 102.2%.

And the “BP % change vs. baseline” value (inhaled, time 100 min)?
Its value is 101.1% and 100.3% and 98.3%.

And the “PAP % change vs. baseline” value (inhaled, time 100 min)?
The value was 100.0% and 93.1% and 96.4%.

And the “BP % change vs. baseline” value (inhaled, time 110 min)?
Its value is 99.9% and 102.2% and 98.3%.

And the “PAP % change vs. baseline” value (inhaled, time 110 min)?
Its value is 97.2% and 88.9% and 89.8%.

What about the “BP % change vs. baseline” value (inhaled, time 120 min) of the same compound?
The value was 101.1% and 101.2% and 101.9%.

What about the “PAP % change vs. baseline” value (inhaled, time 120 min) of the same compound?
The value was 86.5% and 86.2% and 86.0%.

What about the “BP % change vs. baseline” value (inhaled, time 130 min) of the same compound?
The value was 99.9% and 99.4% and 100.1%.

And the “PAP % change vs. baseline” value (inhaled, time 130 min)?
Its value is 77.5% and 78.6% and 84.6%.

And the “BP % change vs. baseline” value (inhaled, time 140 min)?
The value was 99.9% and 99.4% and 100.1%.

What about the “PAP % change vs. baseline” value (inhaled, time 140 min) of the same compound?
Its value is 76.3% and 77.7% and 81.3%.

And the “BP % change vs. baseline” value (inhaled, time 150 min)?
Its value is 99.9% and 98.5% and 100.1%.

What about the “PAP % change vs. baseline” value (inhaled, time 150 min) of the same compound?
Its value is 77.3% and 75.0% and 78.7%.

What about the “BP % change vs. baseline” value (inhaled, time 160 min) of the same compound?
The value was 99.9% and 96.7% and 99.2%.

What about the “PAP % change vs. baseline” value (inhaled, time 160 min) of the same compound?
The value was 75.5% and 71.4% and 77.3%.

And the “BP % change vs. baseline” value (inhaled, time 170 min)?
The value was 101.1% and 97.6% and 99.2%.

What about the “PAP % change vs. baseline” value (inhaled, time 170 min) of the same compound?
Its value is 72.1% and 71.9% and 75.1%.

What about the “BP % change vs. baseline” value (inhaled, time 180 min) of the same compound?
The value was 102.3% and 95.8% and 99.2%.

And the “PAP % change vs. baseline” value (inhaled, time 180 min)?
The value was 74.0% and 68.0% and 75.9%.

And the “BP % change vs. baseline” value (inhaled, time 190 min)?
The value was 102.3% and 95.8% and 99.2%.

What about the “PAP % change vs. baseline” value (inhaled, time 190 min) of the same compound?
Its value is 74.5% and 65.0% and 77.1%.

And the “BP % change vs. baseline” value (inhaled, time 200 min)?
Its value is 102.3% and 94.0% and 99.2%.

And the “PAP % change vs. baseline” value (inhaled, time 200 min)?
The value was 70.1% and 70.6% and 77.2%.

What about the “BP % change vs. baseline” value (inhaled, time 210 min) of the same compound?
Its value is 103.5% and 94.0% and 99.2%.

What about the “PAP % change vs. baseline” value (inhaled, time 210 min) of the same compound?
The value was 70.8% and 65.6% and 76.8%.

What about the “BP % change vs. baseline” value (inhaled, time 220 min) of the same compound?
Its value is 105.9% and 95.8% and 98.3%.

What about the “PAP % change vs. baseline” value (inhaled, time 220 min) of the same compound?
The value was 77.8% and 66.7% and 75.3%.

And the “BP % change vs. baseline” value (inhaled, time 230 min)?
Its value is 107.1% and 94.9% and 97.4%.

And the “PAP % change vs. baseline” value (inhaled, time 230 min)?
The value was 82.5% and 71.3% and 73.9%.

What about the “BP % change vs. baseline” value (inhaled, time 240 min) of the same compound?
The value was 107.1% and 94.0% and 97.4%.

And the “PAP % change vs. baseline” value (inhaled, time 240 min)?
The value was 81.0% and 67.4% and 75.0%.

What about the “BP % change vs. baseline” value (inhaled, time 250 min) of the same compound?
Its value is 109.4% and 94.9% and 98.3%.

And the “PAP % change vs. baseline” value (inhaled, time 250 min)?
The value was 79.0% and 72.2% and 75.0%.

And the “BP % change vs. baseline” value (inhaled, time 260 min)?
Its value is 107.1% and 94.9% and 98.3%.

What about the “PAP % change vs. baseline” value (inhaled, time 260 min) of the same compound?
Its value is 75.0% and 72.7% and 76.7%.

And the “BP % change vs. baseline” value (inhaled, time 270 min)?
Its value is 107.1% and 94.9% and 97.4%.

And the “PAP % change vs. baseline” value (inhaled, time 270 min)?
Its value is 70.3% and 71.1% and 78.4%.

What about the “BP % change vs. baseline” value (inhaled, time 280 min) of the same compound?
Its value is 107.1% and 94.9% and 99.2%.

And the “PAP % change vs. baseline” value (inhaled, time 280 min)?
Its value is 65.8% and 75.6% and 79.7%.

What about the “BP % change vs. baseline” value (inhaled, time 290 min) of the same compound?
The value was 107.1% and 94.0% and 98.3%.

And the “PAP % change vs. baseline” value (inhaled, time 290 min)?
The value was 68.3% and 73.4% and 79.9%.

And the “BP % change vs. baseline” value (inhaled, time 300 min)?
Its value is 107.1% and 94.9% and 99.2%.

What about the “PAP % change vs. baseline” value (inhaled, time 300 min) of the same compound?
Its value is 69.1% and 76.2% and 79.6%.

And the “BP % change vs. baseline” value (inhaled, time 310 min)?
Its value is 107.1% and 94.9% and 98.3%.

And the “PAP % change vs. baseline” value (inhaled, time 310 min)?
Its value is 62.8% and 79.9% and 79.5%.

What about the “BP % change vs. baseline” value (inhaled, time 320 min) of the same compound?
The value was 104.7% and 94.9% and 99.2%.

And the “PAP % change vs. baseline” value (inhaled, time 320 min)?
Its value is 61.8% and 76.5% and 81.3%.

And the “BP % change vs. baseline” value (inhaled, time 330 min)?
Its value is 107.1% and 94.0% and 101.0%.

What about the “PAP % change vs. baseline” value (inhaled, time 330 min) of the same compound?
The value was 63.1% and 77.9% and 83.3%.

What about the lung selectivity (inhaled, nominal dose of 100 μg/kg) of the same compound?
Its lung selectivity is “good lung selectivity”.

With `O=C(O)CCCCN(CCc1ccccc1OCc1ccc(CCc2ccccc2)cc1)Cc1ccc(C(=O)O)cc1` [comparative example 1, 4-[((4Carboxybutyl)-{2-[(4-phenethylbenzyl)oxy]phenethyl}amino)methyl]benzoic acid] as the compound, how does the “% changes in BP vs baseline” value (0 min vs. start inhalation, listed as Cinaciguat) read?
Its value is 100% and 101%.

What about the “% changes in BP vs baseline” value (10 min vs. start inhalation, listed as Cinaciguat) of the same compound?
Its value is 89% and 86%.

And the “% changes in BP vs baseline” value (20 min vs. start inhalation, listed as Cinaciguat)?
The value was 83% and 82%.

And the “% changes in BP vs baseline” value (30 min vs. start inhalation)?
Its value is 82%.

And the “% changes in BP vs baseline” value (40 min vs. start inhalation)?
Its value is 84%.

And the “% changes in BP vs baseline” value (50 min vs. start inhalation, listed as Cinaciguat)?
Its value is 87% and 85%.

And the “% changes in BP vs baseline” value (60 min vs. start inhalation, listed as Cinaciguat)?
Its value is 91% and 87%.

And the “% changes in BP vs baseline” value (70 min vs. start inhalation, listed as Cinaciguat)?
Its value is 94% and 88%.

What about the “% changes in BP vs baseline” value (80 min vs. start inhalation, listed as Cinaciguat) of the same compound?
The value was 95% and 90%.

What about the “% changes in BP vs baseline” value (90 min vs. start inhalation, listed as Cinaciguat) of the same compound?
The value was 99% and 92%.

What about the “% changes in BP vs baseline” value (−5 min vs. start inhalation, listed as Cinaciguat) of the same compound?
The value was 100% and 99%.

— patent US12138256B2, “Treatment of cardiopulmonary disorders” (Bayer Aktiengesellschaft, priority 2021, dated 2024)
